A short description of this series: Determination of reduction potentials by cyclic voltametry (CV). It counts as physicochemical. From the text:
In one embodiment, the compound of the invention has a reduction potential, which is different from the reduction potential of CoQ10. In an exemplary embodiment, the reduction potential found for the compound of the invention is lower than the reduction potential of CoQ10. Methods for the determination of reduction potentials are known in the art and are, for example, described in A. J. Fry, Synthetic Organic Electrochemistry, 2nd Ed., Wiley-Interscience, New York, 1989. For example the reduction potential is measured against the Ag/AgNO3 redox system. “Reduction potential” can mean “first reduction potential”, in which a first electron is transferred (e.g., Q→Q ? ), or “second reduction potential”, in which a second electron is transferred (e.g., Q ? →Q^−2). Typically, “reduction potential” for the purpose of comparing compounds, means the first reduction potential. However, for certain compounds a distinction between a first and a second reduction potential cannot be measured. In these cases, the “overall” (measurable) reduction potential is used to compare reduction potential values of compounds. The reduction potentials for selected ubiquinone analogs of the invention are summarized in Example 12, below. For example, while the first reduction potential of CoQ10 in a particular assay is −1.11, the first reduction potential found for compound 9 is −1.22, which is lower than −1.11. In another example, the overall reduction potential for compound 7 is −1.44, which is lower than −1.11 for CoQ10. In an exemplary embodiment, the ratio (a/b) between the reduction potential of a compound of the invention (a) and the reduction potential of CoQ10 to (b) in a particular assay is between about 1 and about 50. In another exemplary embodiment, the ratio is between about 1 and about 40, preferably between about 1 and about 30, more preferably between about 1 and about 20, and even more preferably between about 1 and about 10. In yet another exemplary embodiment, the ratio is between about 1 and about 8 preferably between about 1 and about 6, more preferably between about 1 and about 4, and most preferably between about 1 and about 2.
The redox chemistry of a variety of purified ubiquinones of the invention was examined using cyclic voltametry (CV). Methods for the determination of reduction potentials are known in the art and are, for example, described in A. J. Fry, Synthetic Organic Electrochemistry, 2nd Ed., Wiley-Interscience, New York, 1989.
The resulting redox data (including those for CoQ10) are listed in the order of increasing first-wave potentials (Epc1) in Table 1, below. The abbreviation Epc1 and Epc2 are used to represent the values of the first and second cathodic peak potentials, respectively. The peak potentials correspond to the first and second reduction wave minima in the recorded CV graphs (see e.g., FIG. 1).
The value of the second peak potential is, typically, an approximation. Chemical side reactions coupled to the transient species generated in the first reduction may contribute to the shape of the wave, and thus the peak potential. […] Representative first and second reduction waves for analogs 1 and 23, as well as for CoQ10, are illustrated in FIG. 1, which represents an expanded portion of the recorded CV graph.

`COC1=C(OC)C(=O)C(C/C=C(\C)CC/C=C(\C)CC/C=C(\C)CC/C=C(\C)CC/C=C(\C)CC/C=C(\C)CC/C=C(\C)CC/C=C(\C)CC/C=C(\C)CCC=C(C)C)=C(C)C1=O` [CoQ10]: where the note is “Epc vs. Ag/AgNO3 in DMF, first cathodic peak potential”, the “Q/Q*− (Epc1), first wave potential” value is listed as −1.11 V. Further, under “Epc vs. Ag/AgNO3 in DMF, second cathodic peak potential, typically an approximation”, the “Q*−/Q−2 (Epc2), second wave potential” value was −1.42 V. For the setting “FIG. 1 reduction waves”, this molecule came in with a first reduction potential of -1.11 V and a second reduction potential of -1.42 V. The molecule also yielded a first reduction potential (in a particular assay) of −1.11.

The values are drawn from patent US20070208086A1, “UBIQUINONE ANALOGS AND METHODS OF USE” (THE REGENTS OF THE UNIVERSITY OF CALIFORNIA, priority 2006, published 2007).
